According to publication PMC8217011, “Natural brominated phenoxyphenols kill persistent and biofilm-incorporated cells of MRSA and other pathogenic bacteria” (Applied Microbiology and Biotechnology, 2020):
Where “and” joins values, the source holds several entries; their conditions need not be identical. Identical values can stand only once.

Experiments:
[1] = test system: A. baumannii ATCC 1605; assay: MIC determination (microbroth dilution); format: cell-based; conditions: Acinetobacter baumannii, ATCC1605, multidrug-resistant strain
Protocol: (§1) Cultures were, if not stated differently, incubated at 37 °C with aeration and shaking (150 rpm) in Mueller-Hinton broth (MHB). Bacteria were freshly incubated at the next morning from an overnight pre-culture for actively growing bacteria to an OD600 nm of approx. 0.6. To ensure persistent growth form, the bacteria were grown overnight until a density at OD600 nm > 5.0 was obtained. For biofilm growth, some colonies from a Mueller-Hinton agar (MHA) plate were picked and resuspended in MHB. Cell density has been adjusted to OD600 nm = 0.8, and cells were sown into a flat-bottom 96-well plate to be incubated statically at 37 °C with aeration. Studies were mainly performed with S. aureus Mu50.
(§2) The minimal inhibitory concentration (MIC) has been determined according to the CSLI guidelines (CLSI [2012]). Briefly, in a sterile polystyrene U-bottom 96-well plate, a 2-fold serial dilution ranging from 100 to 0.78 μM of testing compounds has been prepared in 50 μL MHB. A freshly inoculated S. aureus culture was grown until OD600 nm of approx. 0.6 and diluted to 10^6 CFU/mL in MHB. Finally, 50 μL of the latter cell suspension was added to each well and then incubated statically for 18–24 h at 37 °C. MIC was determined using BacTiterGlo ATP assay (Promega, Madison, WI, USA) and Tecan Infinite F200 Pro (Tecan, Männedorf, Switzerland). Moxifloxacin and DMSO were used as positive and negative control, respectively. Sublethal concentrations of colistin (0.1 μM) were used in some experiments to increase the permeability of the gram-negative cell envelope for compound testing. For E. cloacae, a broth microdilution assay was performed using a serial 2-fold dilution in 96-well flat-bottomed plates (Falcon, BD Bioscience, Heidelberg) of both PPs in broth LB medium (Roth, Karlsruhe) at a concentration range of 50–0.024 μM.

[2] = test system: E. faecalis ATCC 51299; assay: MIC determination (microbroth dilution); format: cell-based; conditions: Enterococcus faecalis, ATCC51299
Protocol: as §1, §2

[3] = test system: E. faecium ATCC 700221; assay: MIC determination (microbroth dilution); format: cell-based; conditions: Enterococcus faecium, ATCC700221
Protocol: as §1, §2

[4] = test system: Escherichia coli ATCC 25922; assay: MIC determination (microbroth dilution); format: cell-based; conditions: Escherichia coli
Protocol: as §1, §2

[5] = test system: Klebsiella pneumoniae ATCC 700603; assay: MIC determination (microbroth dilution); format: cell-based; conditions: ATCC700603
Protocol: as §1, §2

[6] = test system: S. aureus COL; assay: MIC determination (microbroth dilution); format: cell-based; conditions: Staphylococcus aureus
Protocol: as §1, §2

[7] = test system: S. aureus Mu50; assay: MIC determination (microbroth dilution); format: cell-based; conditions: Staphylococcus aureus
Protocol: as §1, §2

[8] = test system: S. aureus TCH1516; assay: MIC determination (microbroth dilution); format: cell-based; conditions: Staphylococcus aureus
Protocol: as §1, §2

[9] = test system: S. aureus USA300; assay: MIC determination (microbroth dilution); format: cell-based; conditions: Staphylococcus aureus
Protocol: as §1, §2

[10] = test system: preformed MRSA biofilms; assay: Biofilm integrity (crystal violet staining, Alcian blue fluorescence microscopy); format: cell-based, Staphylococcus aureus
Protocol: Viability was measured as described above utilizing the Resazurin reduction assay. Biofilm formation was measured using crystal violet staining as described elsewhere (Christensen et al. [1985]; Stepanovic et al. [2007]). Briefly, biofilms were washed three times with PBS and allowed to air dry before 0.1% (v/v) crystal violet solution (Waldeck GmbH & Co., Münster, Germany) was added to each well. The biofilms were stained for 15 min at room temperature (RT). Afterwards, the plates were washed three times again with PBS, and 30% acetic acid was added for 30 min at RT to solubilise the dye. Finally, 100 μL was transferred to a fresh 96-well plate to measure absorption at 600 nm with a plate reader.
Biofilms were pre-grown as described above. Alcian blue staining was performed to stain the EPS. A 1% Alcian blue staining solution was prepared in 3% glacial acetic acid. Staining solution was added to the biofilm in sufficient amount to cover the whole biofilm and incubated for 30 min at RT. Next, the biofilm was washed twice with PBS, and 200 μL 10% formalin solution was added. Fluorescence microscopy was performed using a Nikon Eclipse TS100 fluorescence microscope.

[11] = test system: MRSA vector control strain harbouring empty plasmid pLA03; assay: MIC in recombinant strain, empty vector control; format: cell-based; conditions: Staphylococcus aureus
Protocol: (§3) To corroborate the role as potential determinants of resistance, mtlA and tetR were overexpressed under control of an anhydrotetracycline (Atc)-inducible promoter, and the effect on sensitivity toward 3-bromo-PP was analysed (Fig. 4e). […] However, induction of mtlA or tetR expression in the presence of Atc strongly rendered the cells more susceptible to 3-bromo-PP resulting in MICs of 0.019 μM for mtlA and 0.078 μM for tetR overexpression, respectively. This translates into a […] and 8-fold increased sensitivity during mtlA or tetR overexpression, respectively, compared with the empty vector control (Fig. 4e).

[12] = test system: MRSA strain containing pLA03::tetR; assay: MIC in recombinant strain, tetR overexpression; format: cell-based, Staphylococcus aureus; conditions: for MIC: Staphylococcus aureus, MRSA
Protocol: as §3

SMILES	MIC90 ([1]; + 0.1 μM colistin)	MIC90 ([1]; without colistin)	MIC90 [2]	MIC90 [3]	MIC90 ([4]; ATCC25922, + 0.1 μM colistin)	MIC90 ([4]; ATCC25922, without colistin)	MIC90 [5]	MIC90 [6]	MIC90 [7]	MIC90 [8]	MIC90 [9]	biofilm integrity / dispersal [10]	MIC [11] [µM]	MIC ([12]; induced with Atc (1 μg/mL anhydrotetracycline)) [µM]	MIC ([12]; non-induced) [µM]	increased sensitivity compared with the empty vector control ([12]; tetR overexpression) [fold]
Oc1c(Br)cc(Br)cc1Oc1ccc(Br)cc1Br [2-bromo-PP, 4,6-dibromo-2-(2′,4′-dibromophenoxy)phenol]	0.39 µM and 0.2 µg/mL	0.78 µM and 0.39 µg/mL	0.78 µM and 0.39 µg/mL	0.78 µM and 0.39 µg/mL	0.04 µM and 0.02 µg/mL	3.12 µM and 1.57 µg/mL	1.56 µM and 0.78 µg/mL	0.78 µM and 0.39 µg/mL	0.19 µM and 0.1 µg/mL	0.78 µM and 0.39 µg/mL	0.78 µM and 0.39 µg/mL	Neither 2-bromo-PP (light blue triangle) nor 3-bromo-PP (blue inverted triangle) disperse biofilms	–	–	–	–
Oc1c(Br)cc(Br)c(Br)c1Oc1ccc(Br)cc1Br [3-bromo-PP, 3,4,6-tribromo-2-(2′,4′-dibromophenoxy)phenol]	0.78 µM and 0.45 µg/mL	1.56 µM and 0.91 µg/mL	0.78 µM and 0.45 µg/mL	0.78 µM and 0.45 µg/mL	0.04 µM and 0.02 µg/mL	6.25 µM and 3.63 µg/mL	3.12 µM and 1.81 µg/mL	0.78 µM and 0.45 µg/mL	0.1 µM and 0.06 µg/mL	0.78 µM and 0.45 µg/mL	0.39 µM and 0.23 µg/mL	Neither 2-bromo-PP (light blue triangle) nor 3-bromo-PP (blue inverted triangle) disperse biofilms	~0.625	0.078	0.312	8
